Here are results for ten compounds from US12485123B2, “1H-pyrazolo[4,3-d]pyrimidine compounds as toll-like receptor 7 (TLR7) agonists” (BRISTOL-MYERS SQUIBB COMPANY, priority 2020, dated 2025).

For one assay, the system named is CD69. Kind of assay: Induction of CD69 in human whole blood. Format: cell-based. To be noted: 17 hrs incubation, CD69 surface staining, 100% set to 1 uM of resiquimod, average where assay repeated, read-out: hWB CD69 EC50. How it is done: Induction of Type I Interferon Genes (MX-1) and CD69 in Human Blood
The induction of Type I interferon (IFN) MX-1 genes and the B-cell activation marker CD69 are downstream events that occur upon activation of the TLR7 pathway. The following is a human whole blood assay that measures their induction in response to a TLR7 agonist.
Heparinized human whole blood was harvested from human subjects and treated with test TLR7 agonist compounds at 1 mM. The blood was diluted with RPMI 1640 media and Echo was used to predot 10 nL per well giving a final concentration of 1 uM (10 nL in 10 uL of blood). After mixing on a shaker for 30 sec, the plates were covered and placed in a 37° C. chamber for o/n=17 hrs. Fixing/lysis buffer was prepared (5×→1× in H2O, warm at 37° C.; Cat #BD 558049) and kept the perm buffer (on ice) for later use.
For surface markers staining (CD69): prepared surface Abs: 0.045 ul hCD14-FITC (ThermoFisher Cat #MHCD1401)+0.6 ul hCD19-ef450 (ThermoFisher Cat #48-0198-42)+1.5 ul hCD69-PE (cat #BD555531)+0.855 ul FACS buffer. Added 3 ul/well, spin 1000 rpm for 1 min and mixed on shaker for 30 sec, put on ice for 30 min. Stop stimulation after 30 minutes with 70 uL of prewarmed 1× fix/lysis buffer and use Feliex mate to resuspend (15 times, change tips for each plate) and incubate at 37 C for 10 minutes.
Centrifuge at 2000 rpm for 5 minutes aspirate with HCS plate washer, mix on shaker for 30 sec and then wash with 70 uL in dPBS and pelleted 2×s (2000 rpm for 5 min) and 50 ul wash in FACS buffer pelleted 1×s (2000 rpm for 5 min). Mix on shaker for 30 sec. For Intracellular markers staining (MX-1): Add 50 ul of BD Perm buffer III and mix on shaker for 30 sec. Incubate on ice for 30 minutes (in the dark). Wash with 50 uL of FACS buffer 2× (spin @2300 rpm×5 min after perm) followed by mixing on shaker for 30 sec. Resuspended in 20 ul of FACS buffer containing MX1 antibody ( )(4812)-Alexa 647: Novus Biologicals #NBP2-43704AF647) 20 ul FACS bf+0.8 ul hIgG+0.04 ul MX-1. Spin 1000 rpm for 1 min, mix on shaker for 30 se and the samples were incubated at RT in the dark for 45 minutes followed by washing 2×FACS buffer (spin @2300 rpm×5 min after perm). Resuspend 20 ul (35 uL total per well) of FACS buffer and cover with foil and place in 4° C. to read the following day. Plates were read on iQuePlus. The results were loaded into toolset and […] curves are generated in curve master. The y-axis 100% is set to 1 uM of resiquimod.

The target in another assay is T1, human TLR7 (Homo sapiens, UniProt Q9NYK1).
T1 construct: host or cells: HEK-Blue TLR7 cells (engineered human embryonic kidney cells)
T1 sequence (Q9NYK1 27-1049): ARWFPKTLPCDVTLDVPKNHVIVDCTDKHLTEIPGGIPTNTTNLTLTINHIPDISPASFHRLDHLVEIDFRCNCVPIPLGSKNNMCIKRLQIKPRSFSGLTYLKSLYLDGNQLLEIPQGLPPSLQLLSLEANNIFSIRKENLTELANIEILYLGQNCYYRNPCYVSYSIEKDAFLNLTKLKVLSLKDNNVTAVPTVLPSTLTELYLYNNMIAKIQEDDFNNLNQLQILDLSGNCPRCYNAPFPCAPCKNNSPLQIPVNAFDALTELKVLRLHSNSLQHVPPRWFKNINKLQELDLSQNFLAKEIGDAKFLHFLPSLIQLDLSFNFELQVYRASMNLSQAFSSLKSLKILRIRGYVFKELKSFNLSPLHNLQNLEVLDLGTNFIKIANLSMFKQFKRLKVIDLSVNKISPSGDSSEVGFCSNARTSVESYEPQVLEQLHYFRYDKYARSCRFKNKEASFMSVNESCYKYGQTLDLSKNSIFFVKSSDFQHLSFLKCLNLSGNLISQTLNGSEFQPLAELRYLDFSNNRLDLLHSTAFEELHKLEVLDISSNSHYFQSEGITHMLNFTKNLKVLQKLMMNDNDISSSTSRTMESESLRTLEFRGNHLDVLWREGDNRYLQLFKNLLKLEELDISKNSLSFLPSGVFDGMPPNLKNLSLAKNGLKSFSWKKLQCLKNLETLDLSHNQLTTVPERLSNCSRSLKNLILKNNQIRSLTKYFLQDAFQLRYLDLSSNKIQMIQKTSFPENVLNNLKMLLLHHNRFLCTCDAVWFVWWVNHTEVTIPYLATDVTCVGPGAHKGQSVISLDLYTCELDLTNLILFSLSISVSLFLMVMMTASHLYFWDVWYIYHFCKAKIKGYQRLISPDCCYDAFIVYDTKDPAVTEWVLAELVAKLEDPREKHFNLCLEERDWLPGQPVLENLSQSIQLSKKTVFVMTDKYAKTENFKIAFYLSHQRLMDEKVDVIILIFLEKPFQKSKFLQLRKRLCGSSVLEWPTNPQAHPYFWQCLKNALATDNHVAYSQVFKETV
Kind of assay: Human TLR7 agonist activity reporter assay (HEK-Blue TLR7 cells, SEAP reporter). In kind it is cell-based. To be noted: human TLR7 (hTLR7) reporter assay, SEAP readout after 18 h, average where assay repeated, read-out: TLR7 Agonism EC50. How it is done:
Human TLR7 Agonist Activity Assay
This procedure describes a method for assaying human TLR7 (hTLR7) agonist activity of the compounds disclosed in this specification.
HEK-Blue™ TLR7 cells were added to each well of a 384-well tissue-culture plate (15,000 cells per well) and incubated 16-18 h at 37° C., 5% CO2. Compounds (100 nl) were dispensed into wells containing the HEK-Blue™ TLR cells and the treated cells were incubated at 37° C., 5% CO2. After 18 h treatment ten microliters of freshly-prepared Quanti-Blue™ reagent (Invivogen) was added to each well, incubated for 30 min (37° C., 5% CO2) and SEAP levels measured using an Envision plate reader (OD=620 nm).

Each structure is given as a SMILES string.

The EC50 is the concentration giving half of the maximal effect. With `CCC[C@@H](CCO)Nc1nc(N)nc2cnn(Cc3ccc(C(=O)N4CCN(C)CC4)c4cccnc34)c12` [Compound 112, (3S)-3-[(5-amino-1-{[5-(4-methylpiperazine-1-carbonyl)quinolin-8-yl]methyl}-1H-pyrazolo[4,3-d]pyrimidin-7-yl)amino]hexan-1-ol], the concentration giving a half-maximal response (EC50) in the assay on CD69 came to 5.1 nM; on human TLR7, 4.9 nM.
On to `CN1CCC(NC(=O)c2ccc(Cn3ncc4nc(N)nc(NCC5CC6(CC6)C5)c43)c3ncccc23)CC1` [Compound 116, 8-({5-amino-7-[({spiro[2.3]hexan-5-yl}methyl)amino]-1H-pyrazolo[4,3-d]pyrimidin-1-yl}methyl)-N-(1-methylpiperidin-4-yl)quinoline-5-carboxamide], for which the EC50 in the assay with CD69 was found to be 291 nM; at human TLR7, 280 nM.
In the same order, the values of `CCC[C@@H](CCO)Nc1nc(N)nc2c(C)nn(Cc3ccc(C(=O)N4CCN(CCO)CC4)c4cccnc34)c12` [Compound 120, (3S)-3-{[5-amino-1-({5-[4-(2-hydroxyethyl)piperazine-1-carbonyl]quinolin-8-yl}methyl)-3-methyl-1H-pyrazolo[4,3-d]pyrimidin-7-yl]amino}hexan-1-ol] are 1000 nM and 882 nM.
On the same counts, the results for `CCC[C@@H](CCO)Nc1nc(N)nc2cnn(Cc3ccc(C(=O)N4C[C@H]5C[C@@H]4CN5C)c4cccnc34)c12` [Compound 126, (3S)-3-{[5-amino-1-({5-[(1R,4R)-5-methyl-2,5-diazabicyclo[2.2.1]heptane-2-carbonyl]quinolin-8-yl}methyl)-1H-pyrazolo[4,3-d]pyrimidin-7-yl]amino}hexan-1-ol] are 49.7 nM and 191 nM.
On the same counts, the results for `CCC[C@@H](CCO)Nc1nc(N)nc2cnn(Cc3ccc(C(=O)N4CCOCC4)c4cccnc34)c12` [Compound 113, (3S)-3-[(5-amino-1-{[5-(morpholine-4-carbonyl)quinolin-8-yl]methyl}-1H-pyrazolo[4,3-d]pyrimidin-7-yl)amino]hexan-1-ol] are 132 nM and 186 nM.
As for `Nc1nc(NCC2CC3(CC3)C2)c2c(cnn2Cc2ccc(C(=O)N3CCNC(=O)C3)c3cccnc23)n1` [Compound 117, 4-[8-({5-amino-7-[({spiro[2.3]hexan-5-yl}methyl)amino]-1H-pyrazolo[4,3-d]pyrimidin-1-yl}methyl)quinoline-5-carbonyl]piperazin-2-one], the figures for the EC50 in the assay with CD69 and at human TLR7 were 266 nM and 447 nM, respectively.
In the same order, the values of `CCC[C@@H](CCO)Nc1nc(N)nc2cnn(Cc3ccc(CNC4CCC4)c4cccnc34)c12` [Compound 103, (3S)-3-{[5-amino-1-({5-[(cyclobutylamino)methyl]quinolin-8-yl}methyl)-1H-pyrazolo[4,3-d]pyrimidin-7-yl]amino}hexan-1-ol] are 10.6 nM and 13.8 nM.
On the same counts, the results for `Nc1nc(NCC2CC3(CC3)C2)c2c(cnn2Cc2ccc(C(=O)N3CCN(CCO)CC3)c3cccnc23)n1` [Compound 115, 2-{4-[8-({5-amino-7-[({spiro[2.3]hexan-5-yl}methyl)amino]-1H-pyrazolo[4,3-d]pyrimidin-1-yl}methyl)quinoline-5-carbonyl]piperazin-1-yl}ethan-1-ol] are 756 nM and 468 nM.
For `CCCCNc1nc(N)nc2cnn(Cc3ccc(CNC4CCC4)c4cccnc34)c12` [Compound 101, N7-butyl-1-({5-[(cyclobutylamino)methyl]quinolin-8-yl}methyl)-1H-pyrazolo[4,3-d]pyrimidine-5,7-diamine], the values for the EC50 with CD69 and at human TLR7 were 47.1 nM and 93.3 nM, respectively.
On the same counts, the results for `CCC[C@@H](CCO)Nc1nc(N)nc2cnn(Cc3ccc(C(=O)N4CCNC(=O)C4)c4cccnc34)c12` [Compound 118, 4-{8-[(5-amino-7-{[(3S)-1-hydroxyhexan-3-yl]amino}-1H-pyrazolo[4,3-d]pyrimidin-1-yl)methyl]quinoline-5-carbonyl}piperazin-2-one] are 208 nM and 311 nM.
